Experiments:
[1] = tested on: IL-17A in Human peripheral mononuclear cells; assay: Human PBMC IL-17A assay; format: cell-based; conditions: 72 h, EC50, antiCD3/antiCD28-coated beads, 3 days, alpha-LISA
Description: This assay measures the IL-17A inhibitory potential of test compounds in Human peripheral mononuclear cells.
Peripheral blood mononuclear cells (PBMC) were isolated from human buffy coats using density grade centrifugation (Lymphoprep, Medinor), washed twice in PBS and frozen at −150° C. for later use.
Test compounds were diluted in DMSO and 70 nL of titrated test and reference compounds were transferred by the Echo liquid handling system to a 384-well assay plate in to give a final concentration of 0.1% DMSO in the wells.
The PBMC were thawed, washed and suspended in RPMI-1640 supplemented with pen/strep, glutamax and 10% bovine calf serum. The cells were mixed with antiCD3/antiCD28-coated beads (1 cells pr one bead) (Milteney T-cell expansion kit), and immediately thereafter the cells were pipetted to the plate at 130,000c/well. The plate was incubated for 3 days in humidified air/CO2 (95%/5%) On day 3 the level of IL-17A in the culture supernatant is measured using alpha-LISA kit (Perkin Elmer). Cell viability was measured by adding 6 uL pr well Prestoblue© (Life Technologies) and incubating for 2 hours followed by fluorescent measurement (Ex535/Em615). EC50 values were calculated using a 4-parameter non-linear regression curve-fitting model. Donors may be pre-screened in order to select PBMC with a high secretion of IL-17A.

[2] = molecular target: T1, human RORgt nuclear receptor (RORgT ligand binding domain protein) (Homo sapiens, UniProt P51449); assay: ROR-gamma binding assay (Scintillation Proximity Assay, displacement of [3H]-25-hydroxycholesterol); conditions: EC50, SPA, 15 nM [3H]-25-Hydroxycholesterol, RORgT LBD 12 nM
T1 construct: purchased Proteros Biostructures GmbH
T1 sequence (P51449 with tags, fused parts or gaps): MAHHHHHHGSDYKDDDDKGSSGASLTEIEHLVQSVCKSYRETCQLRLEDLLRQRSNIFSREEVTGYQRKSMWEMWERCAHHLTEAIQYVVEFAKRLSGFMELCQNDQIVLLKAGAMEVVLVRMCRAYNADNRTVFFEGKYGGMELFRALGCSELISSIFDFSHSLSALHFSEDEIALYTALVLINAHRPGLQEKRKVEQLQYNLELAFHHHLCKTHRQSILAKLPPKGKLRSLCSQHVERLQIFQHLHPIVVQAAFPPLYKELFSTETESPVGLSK
Description: This assay is used to evaluate the binding affinity of compounds to the ligand-binding pocket of the human RORgt nuclear receptor based on displacement of a radio-ligand. The EC50 values are calculated using a four parameter fit. Compounds binding with high affinity to RORgt will have low EC50 values.
The assay is a Scintillation Proximity Assay (SPA) that involves competition between an unlabeled test compound and tritium-labeled 25-hydroxycholesterol for binding to RORgT ligand binding domain (LBD) protein immobilized on the surface of SPA beads. These beads contain a scintillant that emits light if excited by a radioactive particle, and this light is detected using a scintillation counter. In this assay, tritium-labelled 25-hydroxycholesterol is used as radiotracer.
400 nL of titrated test and reference compounds in DMSO were transferred by the Echo liquid handling system to a 384-well assay plate followed by addition of 5 μL [3H]-25-Hydroxycholesterol (Perkin Elmer) and 35 μL diluted RORgT LBD protein with the following amino acid sequence (HIS-FLG-tag): MAHHHHHHGSDYKDDDDKGSSGASLTEIEHLVQSVCKSYRETCQLRLEDLLRQRSNIFSREEVTGYQRKSMWEMWERCAHHLTEAIQYVVEFAKRLSGFMELCQNDQIVLLKAGAMEVVLVRMCRAYNADNRTVFFEGKYGGMELFRALGCSELISSIFDFSHSLSALHFSEDEIALYTALVLINAHRPGLQEKRKVEQLQYNLELAFHHHLCKTHRQSILAKLPPKGKLRSLCSQHVERLQIFQHLHPIVVQAAFPPLYKELFSTETESPVGLSK (SEQ ID NO: 1) (Purchased from Proteros Biostructures GmbH). After 30 min of preincubation, 40 μL of HIS-TAG PVT SPA beads (Perkin Elmer) were added. The plates were then incubated for minimum 4 hours at room temperature in darkness before measuring the SPA signal using a MicroBeta plate scintillation counter. Final assay conditions were: 50 mM HEPES pH 7.4, 150 mM NaCl, 5 mM MgCl2, 0.1% BSA, 4 μg/well HIS-TAG PVT SPA Beads, 30 ng/well RORgT LBD (equal to a final concentration of 12 nM), 15 nM [^3H]-25-Hydroxycholesterol, 0.5% DMSO and varying concentrations of test compound in a total volume of 80 μL/well. EC50 values were calculated using a 4-parameter non-linear regression curve-fitting model.

[3] = tested on: IL-17A levels in human peripheral blood; assay: tissue or blood; format: cell-based; conditions: 72 h, read-out: Human Whole blood IL-17A (nM)

Row | Compound | EC50 [1] [µM] | EC50 [2] [µM] | EC50 [3] [nM]
1 | Cc1c(CN2CCN(C(=O)c3ccccc3)[C@@H](C)C2)cc(Cl)cc1Nc1nnc(C#N)o1 [Example 1, 5-[3-[[(3S)-4-benzoyl-3-methyl-piperazin-1-yl]methyl]-5-chloro-2-methyl-anilino]-1,3,4-oxadiazole-2-carbonitrile] | 3.03 | 0.0402 | 
2 | COCc1nnc(Nc2cc(Cl)cc(CN3CCN(C(=O)c4ccccc4)[C@@H](C)C3)c2C)o1 [Example 2, [(2S)-4-[[5-chloro-3-[[5-(methoxymethyl)-1,3,4-oxadiazol-2-yl]amino]-2-methyl-phenyl]methyl]-2-methyl-piperazin-1-yl]-phenyl-methanone] | 0.137 | 0.029 | 454
3 | Cc1c(CN2CCN(C(=O)c3ccccc3)[C@@H](C)C2)cc(Cl)cc1Nc1nnc(C2CCOC2)o1 (stereo partly drawn) [Example 3, [(2S)-4-[[5-chloro-2-methyl-3-[(5-tetrahydrofuran-3-yl-1,3,4-oxadiazol-2-yl)amino]phenyl]methyl]-2-methyl-piperazin-1-yl]-phenyl-methanone] | 0.0511 | 0.0223 | 204
4 | Cc1c(CN2CCN(C(=O)c3ccccc3)[C@@H](C)C2)cc(Cl)cc1Nc1nnc(C2CCCO2)o1 (stereo partly drawn) [Example 4, [(2S)-4-[[5-chloro-2-methyl-3-[(5-tetrahydrofuran-2-yl-1,3,4-oxadiazol-2-yl)amino]phenyl]methyl]-2-methyl-piperazin-1-yl]-phenyl-methanone] | 0.0347 | 0.0299 | 428
5 | Cc1c(CN2CCN(C(=O)c3ccccc3)[C@@H](C)C2)cc(Cl)cc1Nc1nnc(C2CC2)o1 [Example 5, [(2S)-4-[[5-chloro-3-[(5-cyclopropyl-1,3,4-oxadiazol-2-yl)amino]-2-methyl-phenyl]methyl]-2-methyl-piperazin-1-yl]-phenyl-methanone] | 0.0697 | 0.0226 | 385
6 | Cc1cc(CN2CCN(C(=O)OC(C)(C)C)[C@@H](C)C2)c(C)c(Nc2nnc([C@H](C)O)o2)c1 [Example 28, tert-butyl (2S)-4-[[3-[[5-[(1S)-1-hydroxyethyl]-1,3,4-oxadiazol-2-yl]amino]-2,5-dimethyl-phenyl]methyl]-2-methyl-piperazine-1-carboxylate] | 0.107 | 0.0355 | 
7 | Cc1c(CN2CCN(C(=O)OCC(F)(F)F)[C@@H](C)C2)cc(Cl)cc1Nc1nnc(CC#N)o1 [Example 69, 2,2,2-trifluoroethyl (2S)-4-[[5-chloro-3-[[5-(cyanomethyl)-1,3,4-oxadiazol-2-yl]amino]-2-methyl-phenyl]methyl]-2-methyl-piperazine-1-carboxylate] | 0.308 | 0.07 | 
8 | Cc1cc(CN2CCN(C(=O)O[C@H](C)C(F)(F)F)[C@@H](C)C2)c(C)c(Nc2nnc([C@H]3NCC[C@H]3O)o2)c1 [Example 80, [(1R)-2,2,2-trifluoro-1-methyl-ethyl] (2S)-4-[[3-[[5-[(2S,3R)-3-hydroxypyrrolidin-2-yl]-1,3,4-oxadiazol-2-yl]amino]-2,5-dimethyl-phenyl]methyl]-2-methyl-piperazine-1-carboxylate] | 0.07 | 0.0223 | 
9 | Cc1cc(CN2CCN(C(=O)OCC(F)(F)F)[C@@H](C)C2)c(C)c(Nc2nnc([C@H]3NCC[C@H]3O)o2)c1 [Example 81, 2,2,2-trifluoroethyl (2S)-4-[[3-[[5-[(2S,3R)-3-hydroxypyrrolidin-2-yl]-1,3,4-oxadiazol-2-yl]amino]-2,5-dimethyl-phenyl]methyl]-2-methyl-piperazine-1-carboxylate] | 1.52 | 0.11 | 
10 | CC[C@@H](C)OC(=O)N1CCN(Cc2cc(C)cc(Nc3nnc([C@H]4NCC[C@H]4O)o3)c2C)C[C@@H]1C [Example 82, [(1R)-1-methylpropyl] (2S)-4-[[3-[[5-[(2S,3R)-3-hydroxypyrrolidin-2-yl]-1,3,4-oxadiazol-2-yl]amino]-2,5-dimethyl-phenyl]methyl]-2-methyl-piperazine-1-carboxylate] | 0.046 | 0.032 | 

Source: patent publication US10934282B2, “Heteroaromatic modulators of the retinoid-related orphan receptor gamma” (LEO PHARMA A/S, priority 2016, dated 2021)
